The text below walks through data of publication PMC6331856, “Carapanolides T–X from Carapa guianensis (Andiroba) Seeds” (Molecules, 2015).

One data set concerns NO production. The following applies: previous study; read-out: inhibitory activity on NO production IC50; cited from earlier work.
In data set [1] the test system is NO production in LPS-stimulated RAW264.7 cells. Briefly: Inhibitory assay of NO production in LPS-stimulated RAW264.7 cells. In kind it is cell-based. Conditions: Mus musculus, LPS 5 μg/mL, 24 h treatment. The protocol:
(§1) Macrophages may be a potential therapeutic target for inflammatory diseases. Activated macrophages release pro-inflammatory mediators, such as NO, reactive oxygen, interleukin-1 beta, tumor necrosis factor-alpha and other inflammatory mediators, which play important roles in biological defense. […] In the present study, four limonoids and N^G-monomethyl-L-arginine acetate (L-NMMA), an inducible nitric oxide synthase (iNOS) inhibitor, were evaluated for their inhibitory effects on NO production in LPS-stimulated RAW264.7 cells (Figure 5). To determine safe concentrations, the cytotoxicities of these limonoids against RAW 264.7 were assessed by the MTT assay.
An inhibitory assay of nitric oxide production was performed according to a method reported previously with slight modifications. Briefly, RAW264.7 cells (5 × 10^4 cells in 100 μL) were seeded onto 96-well microplates and incubated for 24 h. D-MEM (100 μL) containing test samples (final concentration of 100, 30, 10 or 3 μM) dissolved in DMSO (final concentration 0.2%) and LPS (final concentration of 5 μg/mL) were added. After cells had been treated for 24 h, 50 μL of 0.1% N-(1-naphtyl)ethylenediamine in H2O and 50 μL of 1% sulfanilamide in 5% phosphoric acid were added. After being incubated for 30 min, the absorbance of each well was read at 570 nm using a microplate reader. […]

A further data set concerns RAW264.7 cells. Briefly: RAW264.7 cell proliferation / cytotoxicity by MTT assay. The data set is classed as cell-based. The protocol:
as §1
RAW264.7 cell proliferation was examined according to a method reported previously with few modifications. Briefly, RAW264.7 cells (5 × 10^4 cells in 100 μL) were seeded onto 96-well microplates and incubated for 24 h. D-MEM (100 μL) containing test samples (final concentration of 100, 30, 10 or 3 μM) dissolved in DMSO (final concentration 0.2%) was added. After the cells had been treated for 24 h, the MTT solution was added. After 3 h of incubation, 20% sodium dodecyl sulfate (SDS) in 0.1 M HCl was added to dissolve the formazan produced by the cells. The absorbance of each well was read at 570 nm using a microplate reader. The optical density of vehicle control cells was assumed to be 100%.

Where [2] appears, read: at the effective concentration 10 μM.

With “6α-acetoxy-7α-deacetoxy-7α-hydroxygedunin”, the IC50 (usually the concentration needed to halve the response being measured) in the data set with NO production was 9.4 µM.

For the compound `CC(=O)O[C@H]1[C@@H](OC(C)=O)[C@]2(C)[C@H](CC[C@@]3(C)[C@H](c4ccoc4)OC(=O)[C@H]4O[C@@]423)[C@@]2(C)C=CC(=O)C(C)(C)[C@H]12` [6α-acetoxygedunin], the IC50 in the data set on NO production is 7.9 µM.

Regarding `CC(=O)O[C@@H]1[C@H](O)C2C(C)(C)C(=O)C=C[C@]2(C)C2CC[C@@]3(C)[C@H](c4ccoc4)OC(=O)[C@H]4O[C@]43[C@@]21C` (stereo partly drawn) [6α-hydroxygedunin], the IC50 in the data set with NO production was 19.1 µM.

In the case of `CC1(C)C(=O)C=CC2(C)C1CC(O)C1(C)C2CCC2(C)C(c3ccoc3)OC(=O)C3OC321` (stereo not drawn) [7-deacetoxy-7-hydroxygedunin], in the data set on NO production, the IC50 is 8.4 µM.

With `CC1(C)C(=O)C=CC2(C)C1CC(=O)C1(C)C2CCC2(C)C(c3ccoc3)OC(=O)C3OC321` (stereo not drawn) [7-deacetoxy-7-oxogedunin], the IC50 in the data set on NO production is 12.8 µM.

As to `COC(=O)CC1C(C)(C)C(OC(=O)C(C)C)C2(O)CC3(O)C4=CC(=O)OC(c5ccoc5)C4(C)CCC3C1(C)C2=O` (stereo not drawn) [Compound 1, Carapanolide T], the melting point (as a rule, the temperature of the solid-liquid transition) lay within 83 to 85 °C. In data set [1], this compound registered an IC50 of 22 µM. Further, the “cytotoxicity against RAW264.7” value in the data set on RAW264.7 cells (at 30 μM) is recorded as “low cytotoxicity”. Moreover, the “cytotoxicity against RAW264.7” value with RAW264.7 cells (setting [2]) is listed as “not at the effective concentration”.

`CC=C(C)C(=O)OC1C2(O)CC3(O)C4=CC(=O)OC(c5ccoc5)C4(C)CCC3C(C)(C2=O)C(CC(=O)OC)C1(C)C` (stereo not drawn) [Compound 2, Carapanolide U] gave a melting point of 133 to 136 °C. This compound also displayed an IC50 in data set [1] of 23.3 µM. Also, the “cytotoxicity against RAW264.7” value in the data set on RAW264.7 cells (at 1–30 μM) is recorded as “did not show cytotoxicities”. Further, the “cytotoxicity against RAW264.7” value in the data set with RAW264.7 cells (setting [2]) is “not at an effective concentration”.

Regarding `CC(=O)O[C@@H]1C[C@H]2C(C)(C)C(=O)C=C[C@]2(C)[C@H]2CC[C@@]3(C)[C@H](c4ccoc4)OC(=O)[C@H]4O[C@]43[C@@]21C` [gedunin], in the data set with NO production, the IC50 is 4.6 µM.

carapanolide J: in the data set on NO production, the IC50 is 37.4 µM.
